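Step 1: Grow cells in 96-well plates. Step 2: Expose to compound for 48 hours at 5 concentrations. Step 3: Interpolate endpoints linearly; if unreached, use highest concentration. GI50 is the concentration that inhibits growth by half.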 Calls of active or inactive are those of the source. Cut-off read from the data, not from the text of the source: active = GI50 up to about 1.1 µM and inactive = higher.
What was measured:
Experiment in all cases: growth of human tumour cells (NCI), 48 h
M14 = test system: M14
SK-MEL-2 = test system: SK-MEL-2
DLD-1 = test system: DLD-1
NCI-H522 = test system: NCI-H522
HCC 2998 = test system: HCC 2998
M19-MEL = test system: M19-MEL
CAKI-1 = test system: CAKI-1
SF-295 = test system: SF-295
NCI-H226 = test system: NCI-H226
RXF 393 = test system: RXF 393
KM12 = test system: KM12
OVCAR-8 = test system: OVCAR-8
786-0 = test system: 786-0
DMS-273 = test system: DMS-273
LXFL 529 = test system: LXFL 529
HOP-62 = test system: HOP-62
SNB-19 = test system: SNB-19
UACC-257 = test system: UACC-257
LOX IMVI = test system: LOX IMVI
U-251 = test system: U-251
SNB-75 = test system: SNB-75
HT-29 = test system: HT-29
OVCAR-3 = test system: OVCAR-3
HCT-116 = test system: HCT-116
MOLT-4 = test system: MOLT-4
ACHN = test system: ACHN
Malme-3M = test system: Malme-3M
UACC-62 = test system: UACC-62
NCI-H23 = test system: NCI-H23
EKVX = test system: EKVX
SNB-78 = test system: SNB-78
SK-OV-3 = test system: SK-OV-3
CCRF-CEM = test system: CCRF-CEM
DMS-114 = test system: DMS-114
SK-MEL-5 = test system: SK-MEL-5
SF-539 = test system: SF-539
A549 = test system: A549
OVCAR-5 = test system: OVCAR-5
COLO 205 = test system: COLO 205
RPMI-8226 = test system: RPMI-8226
HOP-92 = test system: HOP-92
IGROV-1 = test system: IGROV-1
HOP-18 = test system: HOP-18
RXF 631 = test system: RXF 631
NCI-H460 = test system: NCI-H460
SN12C = test system: SN12C
A498 = test system: A498
UO-31 = test system: UO-31
SK-MEL-28 = test system: SK-MEL-28
HCT-15 = test system: HCT-15
SW-620 = test system: SW-620
HL-60 = test system: HL-60
TK-10 = test system: TK-10
SR = test system: SR
SF-268 = test system: SF-268
OVCAR-4 = test system: OVCAR-4
KM-20L2 = test system: KM-20L2
K562 = test system: K562
XF498 = test system: XF498

For `COc1cc(/C=N/N=C(\N)NO)c([N+](=O)[O-])cc1OC`, the GI50 (M14) was 41.1 µM (inactive), the GI50 (SK-MEL-2) was 26.5 µM (inactive) and the GI50 (DLD-1) was 56 µM (inactive). The GI50 (NCI-H522) was 13.3 µM (inactive), the GI50 (HCC 2998) was 24.2 µM (inactive) and the GI50 (M19-MEL) was 31.9 µM (inactive). For the same molecule, the GI50 (CAKI-1) was 20.4 µM (inactive), the GI50 (SF-295) was 30.6 µM (inactive) and the GI50 (NCI-H226) was 14.7 µM (inactive). For the same molecule, the GI50 (RXF 393) was 33.7 µM (inactive), the GI50 (KM12) was 44.4 µM (inactive) and the GI50 (OVCAR-8) was 31.7 µM (inactive). For the same molecule, the GI50 (786-0) was 29.9 µM (inactive), the GI50 (DMS-273) was 25.9 µM (inactive) and the GI50 (LXFL 529) was 27 µM (inactive). For the same molecule, the GI50 (HOP-62) was 52.7 µM (inactive), the GI50 (SNB-19) was 79.6 µM (inactive) and the GI50 (UACC-257) was 73.1 µM (inactive). The GI50 (LOX IMVI) was 24.2 µM (inactive), the GI50 (U-251) was 28.3 µM (inactive) and the GI50 (SNB-75) was 27.5 µM (inactive). The GI50 (HT-29) was 30.1 µM (inactive), the GI50 (OVCAR-3) was 34 µM (inactive) and the GI50 (HCT-116) was 28.6 µM (inactive). The GI50 (MOLT-4) was 27.1 µM (inactive), the GI50 (ACHN) was 14.8 µM (inactive) and the GI50 (Malme-3M) was 59.3 µM (inactive). The GI50 (UACC-62) was 20.6 µM (inactive), the GI50 (NCI-H23) was 32.4 µM (inactive) and the GI50 (EKVX) was 18.1 µM (inactive). For the same molecule, the GI50 (SNB-78) was 76.2 µM (inactive), the GI50 (SK-OV-3) was 23.3 µM (inactive) and the GI50 (CCRF-CEM) was 41.6 µM (inactive). For the same molecule, the GI50 (DMS-114) was 6.75 µM (inactive), the GI50 (SK-MEL-5) was 18 µM (inactive) and the GI50 (SF-539) was 41 µM (inactive). The GI50 (A549) was 26.3 µM (inactive), the GI50 (OVCAR-5) was 37.2 µM (inactive) and the GI50 (COLO 205) was 36.1 µM (inactive). For the same molecule, the GI50 (RPMI-8226) was 73.8 µM (inactive), the GI50 (HOP-92) was 29.2 µM (inactive) and the GI50 (IGROV-1) was 53.2 µM (inactive). For the same molecule, the GI50 (HOP-18) was 21 µM (inactive), the GI50 (RXF 631) was 26.7 µM (inactive) and the GI50 (NCI-H460) was 12.6 µM (inactive). For the same molecule, the GI50 (SN12C) was 27 µM (inactive), the GI50 (A498) was 37.7 µM (inactive) and the GI50 (UO-31) was 35.7 µM (inactive). The GI50 (SK-MEL-28) was > 100 µM (inactive), the GI50 (HCT-15) was 22.7 µM and the GI50 (SW-620) was 47.9 µM (inactive). For the same molecule, the GI50 (HL-60) was 26.8 µM (inactive), the GI50 (TK-10) was 69.3 µM (inactive) and the GI50 (SR) was 29.2 µM (inactive). The GI50 (SF-268) was 25.2 µM (inactive), the GI50 (OVCAR-4) was 15.2 µM (inactive) and the GI50 (KM-20L2) was 30.1 µM (inactive). The GI50 (K562) was 36.5 µM (inactive).

With `COC(=O)[C@@]12CC(C(C)C)[C@H]3CC(C(=O)C=C1OC)[C@H]32` (some centres not stated) the GI50 (M14) was > 100 µM (inactive), the GI50 (SK-MEL-2) was > 100 µM (inactive) and the GI50 (DLD-1) was > 100 µM (inactive). The GI50 (HCC 2998) was > 100 µM (inactive), the GI50 (M19-MEL) was > 100 µM (inactive) and the GI50 (XF498) was > 100 µM (inactive). For the same molecule, the GI50 (CAKI-1) was > 100 µM (inactive), the GI50 (SF-295) was > 100 µM (inactive) and the GI50 (RXF 393) was > 100 µM (inactive). For the same molecule, the GI50 (KM12) was > 100 µM (inactive), the GI50 (OVCAR-8) was > 100 µM (inactive) and the GI50 (786-0) was > 100 µM (inactive). For the same molecule, the GI50 (DMS-273) was > 100 µM (inactive), the GI50 (LXFL 529) was > 100 µM (inactive) and the GI50 (HOP-62) was > 100 µM (inactive). The GI50 (SNB-19) was > 100 µM (inactive), the GI50 (UACC-257) was > 100 µM (inactive) and the GI50 (U-251) was > 100 µM (inactive). For the same molecule, the GI50 (SNB-75) was > 100 µM (inactive), the GI50 (HT-29) was > 100 µM (inactive) and the GI50 (OVCAR-3) was > 100 µM (inactive). For the same molecule, the GI50 (HCT-116) was > 100 µM (inactive), the GI50 (MOLT-4) was > 100 µM (inactive) and the GI50 (ACHN) was > 100 µM (inactive). The GI50 (Malme-3M) was > 100 µM (inactive), the GI50 (UACC-62) was > 100 µM (inactive) and the GI50 (NCI-H23) was > 100 µM (inactive). The GI50 (EKVX) was > 100 µM (inactive), the GI50 (SNB-78) was > 100 µM (inactive) and the GI50 (SK-OV-3) was > 100 µM (inactive). For the same molecule, the GI50 (CCRF-CEM) was 47.5 µM (inactive), the GI50 (DMS-114) was > 100 µM (inactive) and the GI50 (SK-MEL-5) was > 100 µM (inactive). For the same molecule, the GI50 (SF-539) was > 100 µM (inactive), the GI50 (A549) was > 100 µM (inactive) and the GI50 (OVCAR-5) was > 100 µM (inactive). The GI50 (COLO 205) was > 100 µM (inactive), the GI50 (RPMI-8226) was > 100 µM (inactive) and the GI50 (HOP-92) was > 100 µM (inactive). For the same molecule, the GI50 (IGROV-1) was > 100 µM (inactive), the GI50 (HOP-18) was > 100 µM (inactive) and the GI50 (RXF 631) was > 100 µM (inactive). For the same molecule, the GI50 (NCI-H460) was > 100 µM (inactive), the GI50 (SN12C) was > 100 µM (inactive) and the GI50 (A498) was > 100 µM (inactive). The GI50 (SK-MEL-28) was > 100 µM (inactive), the GI50 (HCT-15) was greater than 100 µM and the GI50 (SW-620) was > 100 µM (inactive). The GI50 (HL-60) was > 100 µM (inactive), the GI50 (TK-10) was > 100 µM (inactive) and the GI50 (SF-268) was > 100 µM (inactive). For the same molecule, the GI50 (OVCAR-4) was > 100 µM (inactive), the GI50 (KM-20L2) was > 100 µM (inactive) and the GI50 (K562) was 85.5 µM (inactive).
